Laboratory results published in ChEMBL document CHEMBL5463729, “Data for DCP probe BAY 1753011” (2023).
Activity calls are given as the source filed them. The calls are words filed in the database; no cut-off is given here.

Assays:
[1] = target: T1, Oxytocin receptor (Homo sapiens) (UniProt P30559); experiment: Inhibition of Oxytocin at 1 µM in the Eurofins-Panlabs radioligand binding assay (Eurofins_assay_260900); design: ligand concentration 0.8 nM, non-specific ligand with concentration 1 µM Oxytocin, incubation time 2 h, incubation temperature 25°C
T1 sequence (whole entry): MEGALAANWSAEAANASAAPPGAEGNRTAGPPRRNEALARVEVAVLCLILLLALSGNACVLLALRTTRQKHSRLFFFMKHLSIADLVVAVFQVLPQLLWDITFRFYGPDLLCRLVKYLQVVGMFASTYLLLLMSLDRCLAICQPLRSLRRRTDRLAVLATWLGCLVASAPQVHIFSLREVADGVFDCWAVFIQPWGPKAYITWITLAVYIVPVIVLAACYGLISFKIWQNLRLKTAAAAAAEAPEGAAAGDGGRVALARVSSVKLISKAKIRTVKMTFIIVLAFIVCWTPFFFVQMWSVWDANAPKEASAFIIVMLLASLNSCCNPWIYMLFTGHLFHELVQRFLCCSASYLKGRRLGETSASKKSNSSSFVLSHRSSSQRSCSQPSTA

[2] = target: Serine/threonine-protein kinase tousled-like 2 (Homo sapiens) (UniProt Q86UE8); experiment: Inhibition of TLK2(h) at 10.0 µM in the Eurofins Kinase panel; conditions: Compound concentration 10.0 uM
[3] = target: Serine/threonine-protein kinase PLK1 (Homo sapiens) (UniProt P53350); experiment: Inhibition of Plk1(h) at 10.0 µM in the Eurofins Kinase panel; conditions: Compound concentration 10.0 uM
[4] = target: Tyrosine-protein kinase ZAP-70 (Homo sapiens) (UniProt P43403); experiment: Inhibition of ZAP-70(h) at 10.0 µM in the Eurofins Kinase panel; conditions: Compound concentration 10.0 uM
[5] = target: Activated CDC42 kinase 1 (Homo sapiens) (UniProt Q07912); experiment: Inhibition of ACK1(h) at 10.0 µM in the Eurofins Kinase panel; conditions: Compound concentration 10.0 uM
[6] = target: Ephrin type-B receptor 3 (Homo sapiens) (UniProt P54753); experiment: Inhibition of EphB3(h) at 10.0 µM in the Eurofins Kinase panel; conditions: Compound concentration 10.0 uM
[7] = target: Serine/threonine-protein kinase D3 (Homo sapiens) (UniProt O94806); experiment: Inhibition of PKD3(h) at 10.0 µM in the Eurofins Kinase panel; conditions: Compound concentration 10.0 uM
[8] = target: Endothelin-1 receptor (Homo sapiens) (UniProt P25101); conditions: Compound concentration 10.0 uM
[9] = target: Serine/threonine-protein kinase PLK4 (Homo sapiens) (UniProt O00444); experiment: Inhibition of Plk4(h) at 10.0 µM in the Eurofins Kinase panel; conditions: Compound concentration 10.0 uM
[10] = target: Ephrin type-B receptor 1 (Homo sapiens) (UniProt P54762); experiment: Inhibition of EphB1(h) at 10.0 µM in the Eurofins Kinase panel; conditions: Compound concentration 10.0 uM
[11] = target: Serine/threonine-protein kinase Nek3 (Homo sapiens) (UniProt P51956); experiment: Inhibition of NEK3(h) at 10.0 µM in the Eurofins Kinase panel; conditions: Compound concentration 10.0 uM
[12] = target: Sodium-dependent noradrenaline transporter (Homo sapiens, UniProt P23975); conditions: Compound concentration 10.0 uM
[13] = target: Protein kinase C iota type (Homo sapiens) (UniProt P41743); experiment: Inhibition of PKCiota(h) at 10.0 µM in the Eurofins Kinase panel; conditions: Compound concentration 10.0 uM
[14] = target: Protein kinase C eta type (Homo sapiens) (UniProt P24723); experiment: Inhibition of PKCeta(h) at 10.0 µM in the Eurofins Kinase panel; conditions: Compound concentration 10.0 uM
[15] = target: Mitogen-activated protein kinase kinase kinase 2 (Homo sapiens) (UniProt Q9Y2U5); experiment: Inhibition of MEKK2(h) at 10.0 µM in the Eurofins Kinase panel; conditions: Compound concentration 10.0 uM
[16] = target: BMP-2-inducible protein kinase (Homo sapiens) (UniProt Q9NSY1); experiment: Inhibition of BIKe(h) at 10.0 µM in the Eurofins Kinase panel; conditions: Compound concentration 10.0 uM
Oxytocin receptor = target: T2, Oxytocin receptor (Homo sapiens, UniProt P30559); experiment: Radiometric OXTR binding assay (Eurofins #260900)
T2 sequence (P30559 whole entry): T1 sequence (whole entry)

[17] = target: Protein kinase C beta type (Homo sapiens) (UniProt P05771); experiment: Inhibition of PKCbetaII(h) at 10.0 µM in the Eurofins Kinase panel; conditions: Compound concentration 10.0 uM
[18] = target: Phosphatidylinositol 4-phosphate 5-kinase type-1 gamma (Homo sapiens) (UniProt O60331); experiment: Inhibition of PIP5K1g(h) at 10.0 µM in the Eurofins Kinase panel; conditions: Compound concentration 10.0 uM
[19] = target: Serine/threonine-protein kinase pim-2 (Homo sapiens) (UniProt Q9P1W9); experiment: Inhibition of Pim-2(h) at 10.0 µM in the Eurofins Kinase panel; conditions: Compound concentration 10.0 uM
[20] = target: Mitogen-activated protein kinase 10 (Homo sapiens) (UniProt P53779); experiment: Inhibition of JNK3(h) at 10.0 µM in the Eurofins Kinase panel; conditions: Compound concentration 10.0 uM
[21] = target: D(1A) dopamine receptor (Homo sapiens) (UniProt P21728); conditions: Compound concentration 10.0 uM
[22] = target: Serine/threonine-protein kinase 32B (Homo sapiens) (UniProt Q9NY57); experiment: Inhibition of STK32B(h) at 10.0 µM in the Eurofins Kinase panel; conditions: Compound concentration 10.0 uM
[23] = target: Serine/threonine-protein kinase ULK2 (Homo sapiens) (UniProt Q8IYT8); experiment: Inhibition of ULK2(h) at 10.0 µM in the Eurofins Kinase panel; conditions: Compound concentration 10.0 uM
[24] = target: Serine/threonine-protein kinase mTOR (Homo sapiens) (UniProt P42345); experiment: Inhibition of mTOR(h) at 10.0 µM in the Eurofins Kinase panel; conditions: Compound concentration 10.0 uM
[25] = target: Glucocorticoid receptor (Homo sapiens) (UniProt P04150); conditions: Compound concentration 10.0 uM
[26] = target: Androgen receptor (Homo sapiens) (UniProt P10275); conditions: Compound concentration 10.0 uM
[27] = target: Proto-oncogene tyrosine-protein kinase Src (Homo sapiens) (UniProt P12931); experiment: Inhibition of cSRC(h) at 10.0 µM in the Eurofins Kinase panel; conditions: Compound concentration 10.0 uM
[28] = target: Phosphorylase b kinase gamma catalytic chain, skeletal muscle/heart isoform (Homo sapiens) (UniProt Q16816); experiment: Inhibition of PhKgamma1(h) at 10.0 µM in the Eurofins Kinase panel; conditions: Compound concentration 10.0 uM
[29] = target: Ephrin type-A receptor 4 (Homo sapiens) (UniProt P54764); experiment: Inhibition of EphA4(h) at 10.0 µM in the Eurofins Kinase panel; conditions: Compound concentration 10.0 uM
[30] = target: B2 bradykinin receptor (Homo sapiens) (UniProt P30411); conditions: Compound concentration 10.0 uM
[31] = target: G protein-coupled receptor kinase 4 (Homo sapiens) (UniProt P32298); experiment: Inhibition of GRK4(h) at 10.0 µM in the Eurofins Kinase panel; conditions: Compound concentration 10.0 uM
[32] = target: Serine/threonine-protein kinase PAK 4 (Homo sapiens) (UniProt O96013); experiment: Inhibition of PAK4(h) at 10.0 µM in the Eurofins Kinase panel; conditions: Compound concentration 10.0 uM
[33] = target: Testis-specific serine/threonine-protein kinase 3 (Homo sapiens) (UniProt Q96PN8); experiment: Inhibition of TSSK3(h) at 10.0 µM in the Eurofins Kinase panel; conditions: Compound concentration 10.0 uM
[34] = target: Serine/threonine-protein kinase N2 (Homo sapiens) (UniProt Q16513); experiment: Inhibition of PRK2(h) at 10.0 µM in the Eurofins Kinase panel; conditions: Compound concentration 10.0 uM

Sequence of Sodium-dependent noradrenaline transporter (P23975 whole entry): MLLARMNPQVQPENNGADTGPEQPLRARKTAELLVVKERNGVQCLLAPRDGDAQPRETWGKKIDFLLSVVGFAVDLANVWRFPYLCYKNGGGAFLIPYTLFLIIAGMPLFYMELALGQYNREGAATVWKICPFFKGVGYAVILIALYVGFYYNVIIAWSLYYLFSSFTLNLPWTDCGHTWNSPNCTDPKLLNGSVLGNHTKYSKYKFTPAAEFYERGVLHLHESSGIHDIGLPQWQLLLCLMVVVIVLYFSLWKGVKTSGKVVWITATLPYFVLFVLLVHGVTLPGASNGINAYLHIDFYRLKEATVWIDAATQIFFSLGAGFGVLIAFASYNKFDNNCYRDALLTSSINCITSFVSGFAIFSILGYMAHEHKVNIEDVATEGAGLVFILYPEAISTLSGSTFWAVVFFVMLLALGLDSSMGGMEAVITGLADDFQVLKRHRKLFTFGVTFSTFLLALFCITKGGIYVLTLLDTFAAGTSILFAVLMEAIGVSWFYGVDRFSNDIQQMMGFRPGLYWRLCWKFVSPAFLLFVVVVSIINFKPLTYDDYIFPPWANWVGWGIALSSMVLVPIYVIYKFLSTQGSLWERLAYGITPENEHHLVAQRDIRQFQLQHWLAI
Sequence of Endothelin-1 receptor (Homo sapiens) (P25101 whole entry): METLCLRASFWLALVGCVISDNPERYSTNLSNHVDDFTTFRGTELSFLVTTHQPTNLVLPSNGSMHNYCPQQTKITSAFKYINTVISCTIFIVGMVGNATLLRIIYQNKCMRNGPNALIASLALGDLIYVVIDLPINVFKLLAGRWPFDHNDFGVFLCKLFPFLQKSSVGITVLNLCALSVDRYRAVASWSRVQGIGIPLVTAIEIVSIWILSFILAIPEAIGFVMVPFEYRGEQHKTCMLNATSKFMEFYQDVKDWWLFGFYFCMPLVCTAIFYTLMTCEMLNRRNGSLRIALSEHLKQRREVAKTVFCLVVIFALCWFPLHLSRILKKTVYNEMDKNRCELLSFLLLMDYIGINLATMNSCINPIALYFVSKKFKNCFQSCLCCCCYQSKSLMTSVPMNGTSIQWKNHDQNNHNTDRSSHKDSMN
Sequence of Serine/threonine-protein kinase ULK2 (Homo sapiens) (Q8IYT8 whole entry): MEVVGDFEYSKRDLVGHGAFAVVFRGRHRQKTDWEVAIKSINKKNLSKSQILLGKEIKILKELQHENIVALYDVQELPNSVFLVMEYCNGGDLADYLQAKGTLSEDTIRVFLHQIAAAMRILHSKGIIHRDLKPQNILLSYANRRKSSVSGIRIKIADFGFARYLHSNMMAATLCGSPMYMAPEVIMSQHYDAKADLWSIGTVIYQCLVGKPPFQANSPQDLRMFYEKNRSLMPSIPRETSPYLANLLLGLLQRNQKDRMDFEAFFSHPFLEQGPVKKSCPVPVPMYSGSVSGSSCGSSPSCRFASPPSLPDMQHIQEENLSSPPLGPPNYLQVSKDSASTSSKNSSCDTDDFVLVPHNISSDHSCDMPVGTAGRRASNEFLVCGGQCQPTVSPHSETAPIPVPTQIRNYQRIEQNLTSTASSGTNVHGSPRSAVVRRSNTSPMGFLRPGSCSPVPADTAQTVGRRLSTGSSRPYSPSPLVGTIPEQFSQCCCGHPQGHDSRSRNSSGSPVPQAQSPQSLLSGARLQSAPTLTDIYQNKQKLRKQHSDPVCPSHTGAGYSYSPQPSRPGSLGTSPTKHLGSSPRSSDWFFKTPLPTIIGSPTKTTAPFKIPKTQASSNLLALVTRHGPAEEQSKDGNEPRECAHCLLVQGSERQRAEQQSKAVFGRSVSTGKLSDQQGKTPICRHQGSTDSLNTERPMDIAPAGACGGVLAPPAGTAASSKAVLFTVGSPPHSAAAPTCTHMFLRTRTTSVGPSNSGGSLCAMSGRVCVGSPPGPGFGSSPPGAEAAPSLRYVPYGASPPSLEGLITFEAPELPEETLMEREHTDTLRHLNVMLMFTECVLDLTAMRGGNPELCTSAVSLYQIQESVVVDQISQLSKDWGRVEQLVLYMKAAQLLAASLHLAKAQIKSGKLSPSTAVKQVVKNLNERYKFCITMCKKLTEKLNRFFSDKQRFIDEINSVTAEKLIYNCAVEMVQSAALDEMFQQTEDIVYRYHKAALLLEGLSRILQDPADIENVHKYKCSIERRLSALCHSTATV
Sequence of Serine/threonine-protein kinase Nek3 (Homo sapiens) (P51956 whole entry): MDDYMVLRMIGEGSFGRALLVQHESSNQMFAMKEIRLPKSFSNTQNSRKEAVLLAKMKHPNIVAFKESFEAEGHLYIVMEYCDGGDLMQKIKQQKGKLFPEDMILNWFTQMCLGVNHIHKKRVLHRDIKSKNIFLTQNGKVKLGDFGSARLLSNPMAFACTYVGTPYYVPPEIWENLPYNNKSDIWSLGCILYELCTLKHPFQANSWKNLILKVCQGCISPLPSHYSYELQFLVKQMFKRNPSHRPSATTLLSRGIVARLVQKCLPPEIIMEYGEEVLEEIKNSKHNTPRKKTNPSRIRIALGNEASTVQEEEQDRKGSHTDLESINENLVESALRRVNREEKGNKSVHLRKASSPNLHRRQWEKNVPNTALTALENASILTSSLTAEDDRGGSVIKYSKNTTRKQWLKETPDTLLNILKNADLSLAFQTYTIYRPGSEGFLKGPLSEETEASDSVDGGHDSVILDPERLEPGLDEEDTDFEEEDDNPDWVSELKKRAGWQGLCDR
Sequence of Protein kinase C eta type (Homo sapiens) (P24723 whole entry): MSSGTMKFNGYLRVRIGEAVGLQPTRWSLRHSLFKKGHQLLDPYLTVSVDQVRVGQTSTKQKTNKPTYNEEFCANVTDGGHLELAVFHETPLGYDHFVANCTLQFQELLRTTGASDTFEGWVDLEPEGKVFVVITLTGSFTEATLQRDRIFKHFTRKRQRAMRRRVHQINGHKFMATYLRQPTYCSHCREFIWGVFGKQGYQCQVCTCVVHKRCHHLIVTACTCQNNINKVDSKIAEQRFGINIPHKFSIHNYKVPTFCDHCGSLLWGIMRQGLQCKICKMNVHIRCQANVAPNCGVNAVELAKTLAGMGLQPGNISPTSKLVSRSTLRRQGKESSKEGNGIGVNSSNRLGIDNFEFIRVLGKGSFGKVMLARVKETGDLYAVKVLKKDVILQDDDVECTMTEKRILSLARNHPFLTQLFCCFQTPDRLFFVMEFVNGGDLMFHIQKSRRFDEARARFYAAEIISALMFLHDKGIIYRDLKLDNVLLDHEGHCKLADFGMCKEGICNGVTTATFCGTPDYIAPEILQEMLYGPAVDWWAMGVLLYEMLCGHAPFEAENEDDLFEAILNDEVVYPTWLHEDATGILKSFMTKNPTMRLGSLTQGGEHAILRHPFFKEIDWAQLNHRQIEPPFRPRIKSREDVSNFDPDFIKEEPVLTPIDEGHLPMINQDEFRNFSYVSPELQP
Sequence of Proto-oncogene tyrosine-protein kinase Src (Homo sapiens) (P12931 2-536 limits assumed): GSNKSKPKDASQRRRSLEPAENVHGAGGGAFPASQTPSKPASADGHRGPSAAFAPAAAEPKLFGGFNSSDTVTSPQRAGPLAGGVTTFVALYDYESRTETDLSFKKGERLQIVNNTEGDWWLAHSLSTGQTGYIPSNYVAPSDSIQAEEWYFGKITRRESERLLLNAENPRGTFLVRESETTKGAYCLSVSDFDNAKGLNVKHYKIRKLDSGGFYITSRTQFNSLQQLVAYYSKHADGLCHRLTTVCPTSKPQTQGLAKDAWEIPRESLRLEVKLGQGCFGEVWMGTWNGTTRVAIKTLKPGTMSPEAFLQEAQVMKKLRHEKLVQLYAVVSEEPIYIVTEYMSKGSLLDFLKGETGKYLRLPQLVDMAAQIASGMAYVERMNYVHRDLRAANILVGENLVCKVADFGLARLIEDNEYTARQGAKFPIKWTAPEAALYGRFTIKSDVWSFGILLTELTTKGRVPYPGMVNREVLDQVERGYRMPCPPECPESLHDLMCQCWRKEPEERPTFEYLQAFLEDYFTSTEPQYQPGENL
Sequence of Serine/threonine-protein kinase PLK1 (Homo sapiens) (P53350 whole entry): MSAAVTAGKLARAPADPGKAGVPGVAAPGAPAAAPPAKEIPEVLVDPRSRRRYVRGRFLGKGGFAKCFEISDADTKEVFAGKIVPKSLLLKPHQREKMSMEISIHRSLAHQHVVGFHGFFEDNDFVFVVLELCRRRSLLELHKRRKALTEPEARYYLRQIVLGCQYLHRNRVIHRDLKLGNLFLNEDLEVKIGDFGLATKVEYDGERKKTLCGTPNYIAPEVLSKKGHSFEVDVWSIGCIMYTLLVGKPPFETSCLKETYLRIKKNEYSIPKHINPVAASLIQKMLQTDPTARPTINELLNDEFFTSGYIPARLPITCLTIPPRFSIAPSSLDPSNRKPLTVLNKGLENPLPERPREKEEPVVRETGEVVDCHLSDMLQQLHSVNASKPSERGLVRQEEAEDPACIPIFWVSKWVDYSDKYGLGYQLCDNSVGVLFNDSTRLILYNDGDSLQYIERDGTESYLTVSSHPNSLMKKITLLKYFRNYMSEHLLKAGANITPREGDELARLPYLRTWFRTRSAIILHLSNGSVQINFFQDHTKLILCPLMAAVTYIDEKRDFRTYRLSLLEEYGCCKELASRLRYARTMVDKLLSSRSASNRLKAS
Sequence of Serine/threonine-protein kinase PAK 4 (Homo sapiens) (O96013 whole entry, looked up): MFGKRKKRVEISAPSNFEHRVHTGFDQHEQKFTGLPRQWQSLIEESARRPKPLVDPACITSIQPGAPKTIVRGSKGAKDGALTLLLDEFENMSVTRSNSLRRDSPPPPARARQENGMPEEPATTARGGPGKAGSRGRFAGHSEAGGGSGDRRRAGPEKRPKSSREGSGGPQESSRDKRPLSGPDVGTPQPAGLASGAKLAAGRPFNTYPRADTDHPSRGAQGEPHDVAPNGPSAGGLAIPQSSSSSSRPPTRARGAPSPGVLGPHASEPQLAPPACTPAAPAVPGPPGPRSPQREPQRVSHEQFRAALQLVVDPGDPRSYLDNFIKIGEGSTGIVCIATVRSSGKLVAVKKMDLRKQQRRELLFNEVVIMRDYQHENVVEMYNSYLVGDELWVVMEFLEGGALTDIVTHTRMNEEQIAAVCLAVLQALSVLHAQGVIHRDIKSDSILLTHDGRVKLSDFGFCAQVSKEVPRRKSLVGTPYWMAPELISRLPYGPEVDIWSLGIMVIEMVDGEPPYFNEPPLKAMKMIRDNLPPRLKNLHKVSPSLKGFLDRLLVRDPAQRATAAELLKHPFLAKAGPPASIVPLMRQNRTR

Row | Structure (SMILES) | inhibition [2] [%] | inhibition [3] [%] | inhibition [4] [%] | inhibition [5] [%] | inhibition [6] [%] | inhibition [7] [%] | inhibition [8] [%] | inhibition [9] [%] | inhibition [10] [%] | inhibition [11] [%] | inhibition [12] [%] | inhibition [13] [%] | inhibition [14] [%] | inhibition [15] [%] | inhibition [16] [%] | Ki (Oxytocin receptor) | inhibition [17] [%] | inhibition [18] [%] | inhibition [19] [%] | inhibition [20] [%] | other results
1 | O=c1n(Cc2cncn2-c2cccc(Cl)c2)nc(-c2ccc(Cl)cc2)n1C[C@H](O)C(F)(F)F | -6.55 | -0.49 | 8.99 | 8.43 | 7.39 | 1.68 | -3 | 10.6 | 9.79 | 5.44 | 11 | 0.21 | 10.8 | 9.53 | -1.55 | > 10 µM (not active) | 4.87 | -0.37 | 4.89 | 13.2 | inhibition ([1]; Compound concentration 10.0 uM): 12%; inhibition [21]: -6%; inhibition [22]: -7.15%; inhibition [23]: 1.8%; inhibition [24]: 5.25%; inhibition [25]: 32%; inhibition [26]: 9%; inhibition [27]: 0.88%; inhibition [28]: 7.19%; inhibition [29]: 0.23%; inhibition [30]: -10%; inhibition [31]: -1.52%; inhibition [32]: -2.41%; inhibition [33]: -6.06%; inhibition [34]: 27.4%
2 | C[C@H](O)c1nc(Cn2nc(-c3ccc(Cl)cc3)n(C[C@H](O)C(F)(F)F)c2=O)nn1-c1cccc(Cl)c1 [PECAVAPTAN] | -5.51 | -2.91 | 2.69 | -1.31 | 1.81 | -0.82 | 18 | -5.71 | 4.68 | 61 | 71.2 | -3.93 | 4.39 | 7.54 | -0.71 | 0.0051 µM (active) | 2.9 | -2.06 | -2.97 | 0.72 | inhibition ([1]; Compound concentration 0.0001 uM): 3%; inhibition ([1]; Compound concentration 0.001 uM): 6%; inhibition ([1]; Compound concentration 0.01 uM): 41%; inhibition ([1]; Compound concentration 0.1 uM): 84%; inhibition ([1]; Compound concentration 1.0 uM): 95%; inhibition [21]: 1%; inhibition [22]: -0.99%; inhibition [23]: 5.09%; inhibition [24]: -1.45%; inhibition [25]: 1%; inhibition [26]: 12%; inhibition [27]: -5.76%; inhibition [28]: -1.63%; inhibition [29]: -0.37%; inhibition [30]: 1%; inhibition [31]: -0.06%; inhibition [32]: -1.84%; inhibition [33]: -7.5%; inhibition [34]: 7.5%
